In patent US20100009970A1, “COMPOSITIONS AND METHODS FOR TREATMENT OF VIRAL DISEASES” (Combinatorx (Singapore) Pte. Ltd., priority 2008, published 2010):
pIC50: −log10 of the molar value. Structures can show the parent of a compound that is named as a salt. Where two headings read alike, the source gives them in different places.

Assays:
[1] = system: Huh7 cells expressing a subgenomic RNA replicon of Con1 (genotype 1b) sequence origin
[2] = system: Huh7 cells expressing a subgenomic RNA replicon of Con1 (genotype 1b) sequence origin; assay: microbe, parasite or virus in culture; settings: Hepatitis C virus; for IC90: Huh-7; for IC50: Huh-7, read-out: IC50 (uM) [SG]; for Emax: Huh-7, read-out: Max Effect@CC30 (inhibition)
in vitro = settings: human, CC50 (uM) [SG]

## N#C/C(=C/c1ccc(O)c(O)c1)C(=O)NCc1ccccc1 [AG-490, tyrphostin AG-490, reference compound]
[1]
  pIC50: 5.30

## O=C(O)CN(CC(=O)O)c1ccccc1OCCOc1ccccc1N(CC(=O)O)CC(=O)O [1,2-Bis-(2-aminophenoxy)ethane N,N,N,N,-tetreacetic acid, reference compound]
[1]
  pIC50: 4.84

## CCC(Cc1c(I)cc(I)c(O)c1I)C(=O)O (stereo not shown) [Iophenoxic acid, reference compound]
[1]
  pIC50: 4.97

## CC(=O)ON=C1C(=O)N(Cc2cc(Cl)ccc2Cl)c2ccc(Cl)cc21 [UCH-L1 inhibitor, reference compound]
[1]
  pIC50: 4.76

## CCN(CC)c1ccc(C(=C2C=CC(=[N+](CC)CC)C=C2)c2cc(S(=O)(=O)O)ccc2S(=O)(=O)[O-])cc1 [Isosulfan Blue, reference compound]
[1]
  pIC50: 4.60

## COc1cc2ncnc(Nc3cccc(Cl)c3)c2cc1OC [Tyrphostin Ag 1478, tyrphostin AG 1478, reference compound]
[1]
  pIC50: 5.47

## OCCN1CCN(CC/C=C2/c3ccccc3Sc3ccc(C(F)(F)F)cc32)CC1 [Flupentixol (e.g., dihydrochloride), Flupentixol, reference compound]
[1]
  pIC50: 5.44

## Nc1nc(-c2nn(Cc3ccccc3F)c3ncccc23)ncc1C1CC1 [Bay 41-2272, reference compound]
[1]
  pIC50: 6.12

## N#C/C(=C\c1ccc(O)c(O)c1)C(N)=O [Tyrphostin 46, tyrphostin A46, reference compound]
[1]
  pIC50: 4.67

## COc1ccc(-c2nc(C(=O)N3CCN(C)CC3)sc2-c2ccc(OC)cc2)cc1 [FR122047, reference compound]
[1]
  pIC50: 4.64

## Cc1cc(N)c2ccccc2c1O [Vitamin K5]
[1]
  pIC50: 4.71

## O=C1Nc2ccc3ncsc3c2/C1=C/c1cnc[nH]1 [PKR inhibitor, reference compound]
[1]
  pIC50: 5.76

## CC(=O)[O][Pt]([NH2])([Cl])([Cl])([NH]C1CCCCC1)[O]C(C)=O [Satraplatin, reference compound]
[1]
  pIC50: 5.32

## Nc1ccc(C(=O)O)c(O)c1 [P-Aminosalicylic acid, reference compound]
[1]
  pIC50: 4.88

## CC(=O)O[C@@]12CO[C@@H]1C[C@H](O)[C@@]1(C)C(=O)[C@H](O)C3=C(C)[C@@H](O)C[C@@](O)([C@@H](OC(=O)c4ccccc4)[C@H]21)C3(C)C [10-Deacetylbaccatine Iii, reference compound]
[1]
  pIC50: 4.99

## N-Tosyl-L-phenylalanine chloromethyl ketone [reference compound]
[1]
  pIC50: 4.78

## CCCCC1C(=O)N(c2ccccc2)N(c2ccc(O)cc2)C1=O (stereo not shown) [Oxyphenbutazone (e.g., hydrate), oxyphenbutazone, reference compound]
[1]
  pIC50: 5.38

## C/C1=C2/[N-][C@H]([C@H](CC(N)=O)[C@@]2(C)CCC(=O)NC[C@@H](C)OP(=O)([O-])O[C@H]2[C@@H](O)[C@@H](n3cnc4cc(C)c(C)cc43)O[C@@H]2CO)[C@]2(C)N=C(/C(C)=C3N=C(/C=C4N=C1[C@@H](CCC(N)=O)C\4(C)C)[C@@H](CCC(N)=O)[C@]\3(C)CC(N)=O)[C@@H](CCC(N)=O)[C@]2(C)CC(N)=O.[Co+3].[OH-] [Hydroxocobalamin, hydroxocobalamin, reference compound]
[1]
  pIC50: 5.88

## N#CC(C#N)=Cc1cc(O)c(O)c(O)c1 [Tyrphostin 25, tyrphostin 25, reference compound]
[1]
  pIC50: 4.80

## C[C@]12CC[C@H]3[C@@H](CCC4=CC(=O)CC[C@@]43C)[C@@H]1CC[C@@H]2C(=O)CO [Desoxycorticosterone (e.g., acetate), deoxycorticosterone, reference compound]
[1]
  pIC50: 4.83

## O=c1cc(N2CCOCC2)oc2c1ccc1ccccc12 [DNA-PK inhibitor II, reference compound]
[1]
  pIC50: 5.19

## CCCCC(CC)COC(=O)c1ccc(N(C)C)cc1 (stereo not shown) [Padimate O]
[1]
  pIC50: 5.26

## COc1ccc(C[C@H]2NC[C@H](O)[C@H]2OC(C)=O)cc1 [Anisomycin, reference compound]
[1]
  pIC50: 6.22

## CSc1ccc(Oc2ccc(S(N)(=O)=O)cc2CN2CC[C@H](O)C2)cc1C [Compound 66, (S)-3-((3-hydroxypyrrolidin-1-yl)methyl)-4-(3-methyl-4-(methylthio)phenoxy)benzenesulfonamide]
[2]
  IC90: 6.78 µM
  IC50: 2.43 µM
In vitro
  CC50: > 50 µM

## CN(C1CC1)[C@H]1CC[C@@H](c2ccc(Cl)c(Cl)c2)c2ccccc21 [N-Cyclopropyl Sertraline, (1S,4S)—N-cyclopropyl-4-(3,4-dichlorophenyl)-N-methyl-1,2,3,4-tetrahydronaphthalen-1-amine]
[2]
  IC90: 34.2 µM
  IC50: 14.5 µM
  Emax: 99%
In vitro
  CC50: > 50 µM

## CN(C(=O)c1ccc2c(c1)[C@@H](N(C)C)CC[C@H]2c1ccc(Cl)c(Cl)c1)C1CC1 [(5S,8S)—N-cyclopropyl-5-(3,4-dichlorophenyl)-8-(dimethylamino)-N-methyl-5,6,7,8-tetrahydronaphthalene-2-carboxamide]
[2]
  IC50: 13 µM
In vitro
  CC50: 26.3 µM

## CSc1ccc(Oc2ccc(S(N)(=O)=O)cc2CN2CCNCC2)cc1C [Compound 111, 4-(3-methyl-4-(methylthio)phenoxy)-3-(piperazin-1-ylmethyl)benzenesulfonamide]
[2]
  IC90: 22.6 µM
  IC50: 7.12 µM
In vitro
  CC50: 46.3 µM

## CSc1ccc(Oc2ccc(S(N)(=O)=O)cc2CN(C)C[C@H](C)O)cc1C [Compound 71, (S)-3-(((2-hydroxypropyl)(methyl)amino)methyl)-4-(3-methyl-4-(methylthio)phenoxy)benzenesulfonamide]
[2]
  IC90: 13.4 µM
  IC50: 4.96 µM
In vitro
  CC50: > 50 µM

## CN[C@H]1CC[C@@H](c2ccc(Cl)c(Cl)c2)c2ccc(N(C)C(C)=O)cc21 [N-((5S,8S)-5-(3,4-dichlorophenyl)-8-(methylamino)-5,6,7,8-tetrahydronaphthalen-2-yl)-N-methylacetamide]
[2]
  IC90: 10.7 µM
  IC50: 3.79 µM
In vitro
  CC50: 14.6 µM

## CNCc1cc(S(N)(=O)=O)ccc1Oc1ccc([N+](=O)[O-])c(C)c1 [Compound 76, 4-(3-methyl-4-nitrophenoxy)-3-((methylamino)methyl)benzenesulfonamide]
[2]
  IC50: 31 µM
In vitro
  CC50: > 50 µM

## CSc1ccc(Oc2ccc(C#N)cc2CN(C)C)cc1C [Compound 7, 3-((dimethylamino)methyl)-4-(3-methyl-4-(methylthio)phenoxy)benzonitrile]
[2]
  IC90: 11.5 µM
  IC50: 6.4 µM
  Emax: 96.7%
In vitro
  CC50: > 50 µM

## CSc1ccc(Oc2ccc(S(N)(=O)=O)cc2CNCCO)cc1C [Compound 1, 3-((2-hydroxyethylamino)methyl)-4-(3-methyl-4-(methylthio)phenoxy)benzenesulfonamide]
[2]
  IC90: 15 µM
  IC50: 4.31 µM
In vitro
  CC50: > 50 µM

## CN(CCO)[C@H]1CC[C@@H](c2ccc(Cl)c(Cl)c2)c2ccc(C[S+](C)[O-])cc21 (stereo partly drawn) [2-(((1S,4S)-4-(3,4-dichlorophenyl)-7-(methylsulfinylmethyl)-1,2,3,4-tetrahydronaphthalen-1-yl)(methyl)amino)ethanol]
[2]
  IC50: 24.2 µM
In vitro
  CC50: > 50 µM

## Cc1cccc(Oc2ccc(S(N)(=O)=O)cc2CC(C)C)c1 [Compound 65, 3-isobutyl-4-(m-tolyloxy)benzenesulfonamide]
[2]
  IC90: 50 µM
  IC50: 30.7 µM
In vitro
  CC50: > 50 µM
